Marks after values point to notes of the source that are not given here.
Columns and labels:
Assay type in all cases: in vivo
Conditions in all cases: 100 = 100% disease control
[1] = system: Erysiphe graminis f. sp. tritici; experiment: Test J: wheat powdery mildew on wheat seedlings, sprayed the day before inoculation, visual disease rating
Procedure, shortened: (§1)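 Compounds were dissolved in acetone (3% of final volume), then suspended in 50/50 acetone/purified water with 250 ppm Trem® 014 surfactant. Suspensions at 200 ppm (some at 40 ppm) were sprayed to run-off, 200 ppm being equivalent to 500 g/ha.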

Septoria tritici = experiment: Test G: wheat leaf blotch on wheat seedlings, sprayed the day before inoculation, visual disease rating
Procedure, shortened: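 Seedlings receive a protective spray of test suspension in acetone/water carrying 250 ppm surfactant, mostly at 200 ppm and at 40 ppm where marked. They are inoculated the next day, kept saturated at 24° C for 48 h, then held at 20° C for 19 days before visual scoring.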

Botrytis cinerea = experiment: Test C: tomato Botrytis on tomato seedlings, sprayed the day before inoculation, visual disease rating
Procedure, shortened: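 Compounds were dissolved in acetone (3% of final volume), then suspended in 50/50 acetone/purified water containing 250 ppm polyhydric alcohol ester surfactant. Suspensions were sprayed to run-off on tomato seedlings at 200 ppm, equivalent to 500 g/ha, or at 40 ppm where marked.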

Septoria nodorum = experiment: Test F: wheat glume blotch on wheat seedlings, sprayed the day before inoculation, visual disease rating
Procedure, shortened: as §1

Alternaria solani = experiment: Test D: tomato early blight, sprayed the day before inoculation, visual disease rating
Procedure, shortened: as §1

[2] = system: Puccinia recondita f. sp. tritici; experiment: Test H: wheat leaf rust, test suspension sprayed after inoculation of wheat seedlings, visual disease rating
Procedure, shortened: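 Wheat seedlings inoculated with P. recondita spores, held 24 h saturated at 20 °C, then 2 days in growth chamber at 20 °C; compound suspension (acetone/water with Trem 014) sprayed to run-off afterwards. Rated visually; 200 ppm (≈500 g/ha) unless marked *, which denotes 40 ppm.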

[3] = system: Puccinia recondita f. sp. tritici; experiment: Test I: wheat leaf rust on wheat seedlings, sprayed the day before inoculation, visual disease rating
Procedure, shortened: as §1

[4] = 200 ppm, 0 = no control relative to controls

Structure (SMILES) | Test J disease control rating [1, 4] | Test G disease control rating (Septoria tritici; [4]) | Test C disease control rating (Botrytis cinerea; [4]) | Test F disease control rating (Septoria nodorum; [4]) | Test D disease control rating (Alternaria solani; [4]) | Test H disease control rating [2, 4] | Test I disease control rating [3, 4] | other results
COc1cc(F)c(-c2c(Cl)nc(Br)n2-c2ccc(OC)nc2)c(F)c1 [compound 705] | 100% | 99% | 99% | 99% | 100% | 100% | 100% | 
COC(=O)Cc1nc(Br)c(-c2c(F)cccc2F)n1-c1ccc(Cl)cc1 [Compound 544, methyl 4-bromo-1-(4-chlorophenyl)-5-(2,6-difluorophenyl)-1H-imidazole-2-acetate] |  |  |  |  |  |  |  | pest or weed control at 200 ppm ([1]; Blumeria graminis, 168 h, 200 ppm, 0 = no control relative to controls): 86%; pest or weed control at 200 ppm (Septoria tritici; Zymoseptoria tritici, 504 h, 200 ppm, 0 = no control relative to controls): 82%; pest or weed control at 200 ppm (Botrytis cinerea; Botrytis cinerea, 120 h, 200 ppm, 0 = no control relative to controls): 84%; pest or weed control at 200 ppm (Septoria nodorum; Parastagonospora nodorum, 264 h, 200 ppm, 0 = no control relative to controls): 0%; pest or weed control at 200 ppm (Alternaria solani; Alternaria solani, 168 h, 200 ppm, 0 = no control relative to controls): 98%; pest or weed control at 200 ppm ([2]; Puccinia recondita, 96 h, 200 ppm, 0 = no control relative to controls): 9%; pest or weed control at 200 ppm ([3]; Puccinia recondita, 168 h, 200 ppm, 0 = no control relative to controls): 91%
COc1ccc(-n2c(Cl)nc(C)c2-c2c(F)cccc2F)cn1 [compound 718] | 100% | 100% | 100% | 97% | 100% | 99% | 100% | 
COc1ccc(F)c(-c2c(Cl)nc(Br)n2-c2ccc(Cl)cc2)c1Cl [compound 501] | 99% | 95% | 98% | 98% | 99% | 0% | 67% | 
Cc1nc(C)n(-c2ccc(F)cc2Cl)c1-c1ccc(Cl)c(F)c1 [compound 543] |  |  |  |  |  |  |  | Test J disease control rating ([1]; 40 ppm (marked *)): 0* %; Test G disease control rating (Septoria tritici; 40 ppm (marked *)): 97* %; Test C disease control rating (Botrytis cinerea; 40 ppm (marked *)): 99* %; Test F disease control rating (Septoria nodorum; 40 ppm (marked *)): 0* %; Test D disease control rating (Alternaria solani; 40 ppm (marked *)): 60* %; Test H disease control rating ([2]; 40 ppm (marked *)): 0* %; Test I disease control rating ([3]; 40 ppm (marked *)): 95* %
COc1ccc(Cl)c(-c2c(Cl)nc(C)n2-c2ccc(Cl)cc2)c1F [compound 550] | 100% | 97% | 100% | 100% | 100% | 0% | 99% | 
Cc1nc(Cl)n(-c2ccc(F)cc2)c1-c1c(F)cc(F)cc1F [compound 492] |  |  |  |  |  |  |  | Test J disease control rating ([1]; 40 ppm (marked *)): 0* %; Test G disease control rating (Septoria tritici; 40 ppm (marked *)): 82* %; Test C disease control rating (Botrytis cinerea; 40 ppm (marked *)): 94* %; Test F disease control rating (Septoria nodorum; 40 ppm (marked *)): 0* %; Test D disease control rating (Alternaria solani; 40 ppm (marked *)): 100* %; Test H disease control rating ([2]; 40 ppm (marked *)): 0* %; Test I disease control rating ([3]; 40 ppm (marked *)): 0* %
Fc1ccc(-n2c(Br)nc(Br)c2-c2ccc(Cl)cc2)c(Cl)c1 [compound 306] | 99% | 94% | 99% | 0% | 96% | 6% | 91% | 
Cc1nc(Cl)c(-c2ccc(Cl)cc2)n1-c1ccc(F)cc1Cl [compound 422] | 100% | 100% | 100% | 60% | 100% | 0% | 99% | 
COc1ccc(F)c(-c2c(Cl)nc(C)n2-c2ccc(Cl)cc2)c1Cl [compound 519] | 100% | 97% | 100% | 100% | 100% | 0% | 100% | 
COc1cc(F)c(-c2c(Cl)nc(Cl)n2-c2cc(C)cnc2Cl)c(F)c1 [compound 677] | 100% | 99% | 100% | 100% | 100% | 100% | 100% | 
Fc1cc(F)c(-c2c(Cl)nc(Cl)n2-c2cccc(OC(F)(F)F)c2)c(F)c1 [compound 599] | 0% | 9% | 26% | 0% | 0% | 0% | 0% | 
Cc1nc(Cl)c(-c2c(F)ccc(F)c2F)n1-c1ccc(Cl)c(Cl)c1 [compound 480] | 100% | 96% | 100% | 95% | 100% | 0% | 99% | 
COc1ccc(F)c(-c2c(Cl)nc(Cl)n2-c2ccc(Cl)c(F)c2)c1F [compound 392] | 100% | 97% | 100% | 100% | 100% | 60% | 99% | 
Cc1nc(Cl)n(-c2ccc(F)cc2Cl)c1-c1ccc(Cl)c(F)c1 [compound 573] | 99% | 96% | 100% | 0% | 100% | 22% | 100% | 
Cc1nc(Br)c(-c2c(F)cccc2F)n1-c1ccc2c(c1)OCCO2 [compound 602] |  |  |  |  |  |  |  | Test J disease control rating ([1]; 40 ppm (marked *)): 81* %; Test G disease control rating (Septoria tritici; 40 ppm (marked *)): 99* %; Test C disease control rating (Botrytis cinerea; 40 ppm (marked *)): 99* %; Test F disease control rating (Septoria nodorum; 40 ppm (marked *)): 0* %; Test D disease control rating (Alternaria solani; 40 ppm (marked *)): 91* %; Test H disease control rating ([2]; 40 ppm (marked *)): 0* %; Test I disease control rating ([3]; 40 ppm (marked *)): 98* %
COc1cc(F)c(-n2nnc(Cl)c2-c2ccc(Cl)cc2)c(F)c1 [compound 478] | 97% | 93% | 100% | 0% | 93% | 0% | 96% | 
COC(=O)c1ccc(-n2c(Br)nc(Cl)c2-c2c(F)cccc2F)cc1 [compound 690] | 81% | 98% | 78% | 0% | 0% | 0% | 74% | 
COc1cc(F)c(-c2c(Cl)nc(Br)n2-c2ccccc2)c(F)c1Br [compound 429] | 98% | 99% | 99% | 0% | 77% | 0% | 98% | 
COc1ccc(F)c(-c2c(Cl)nc(Br)n2-c2ccc(Br)cc2)c1F [compound 563] | 100% | 100% | 100% | 100% | 100% | 0% | 94% | 
Cc1nc(C)n(-c2ccc(F)cc2)c1-c1c(F)cc(F)cc1F [compound 491] |  |  |  |  |  |  |  | Test J disease control rating ([1]; 40 ppm (marked *)): 0* %; Test G disease control rating (Septoria tritici; 40 ppm (marked *)): 91* %; Test C disease control rating (Botrytis cinerea; 40 ppm (marked *)): 92* %; Test F disease control rating (Septoria nodorum; 40 ppm (marked *)): 0* %; Test D disease control rating (Alternaria solani; 40 ppm (marked *)): 99* %; Test H disease control rating ([2]; 40 ppm (marked *)): 0* %; Test I disease control rating ([3]; 40 ppm (marked *)): 0* %
COc1ccc(F)c(-c2c(Cl)nc(Br)n2-c2ccc(Cl)nc2)c1F [compound 730] | 100% | 100% | 100% | 99% | 100% | 9% | 99% | 
CNc1nc(Cl)c(-c2c(F)cc(OC)cc2F)n1-c1ccc(Cl)cc1 [compound 692] | 79% | 99% | 100% | 0% | 70% | 8% | 0% | 

— patent US20110045101A1, “FUNGICIDAL SUBSTITUTED AZOLES” (E.I. Du Pont De Nemours and Company, priority 2009, published 2011)
